The text below walks through data of US12570642B2, “GLP-IR modulating compounds” (Gilead Sciences, Inc., priority 2021, dated 2026).

This assay concerns the target GLP-1R (Homo sapiens, UniProt P43220). In words: GLP-1R Activation - cAMP Assay. It counts as cell-based. As to conditions: cAMP increase in CHO cells stably expressing GLP-1R; each compound run on one of the two cAMP assays (Assay 1 or Assay 2, not specified). In a few lines: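 cAMP rise read by HTRF after 30 min agonist exposure (10-point titration, 37 °C) in HBSS/20 mM Hepes/0.1% BSA, following 1 h pre-incubation. Cells: stable GLP-1R CHO line, 1,000/well, seeded overnight. Sigmoidal fit of response vs log concentration gives EC50.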

GLP-1R, sequence (P43220 24-463): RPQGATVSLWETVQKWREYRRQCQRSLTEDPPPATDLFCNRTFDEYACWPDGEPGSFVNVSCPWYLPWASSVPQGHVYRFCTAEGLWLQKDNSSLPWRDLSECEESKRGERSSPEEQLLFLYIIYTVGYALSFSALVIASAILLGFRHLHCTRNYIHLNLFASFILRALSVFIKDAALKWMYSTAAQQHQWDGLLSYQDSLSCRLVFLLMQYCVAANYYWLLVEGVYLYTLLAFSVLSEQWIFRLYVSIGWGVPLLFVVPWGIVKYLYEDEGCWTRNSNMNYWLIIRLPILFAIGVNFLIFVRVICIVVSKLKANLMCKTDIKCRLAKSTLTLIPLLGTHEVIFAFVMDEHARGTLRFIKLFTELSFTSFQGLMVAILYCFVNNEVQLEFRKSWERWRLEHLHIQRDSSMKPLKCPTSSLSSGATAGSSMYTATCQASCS

`CC1(C)COCC1n1c(Cc2cc(F)c(-c3cccc(OCc4ccc(Cl)nc4)n3)cc2F)nc2ccc(C(=O)O)cc21` (stereo not drawn) [Example 92]: the EC50 (as a rule, the concentration giving half of the maximal effect) came to 0.13 nM.

`Cc1cc(Cc2nc3c(F)cc(C(=O)O)cc3n2[C@@H]2COCC2(C)C)c(F)cc1-c1ccc(F)c(OCc2ccc(C#N)cc2F)n1` [Example 207, (S)-2-(4-(6-((4-cyano-2-fluorobenzyl)oxy)-5-fluoropyridin-2-yl)-2-fluoro-5-methylbenzyl)-1-(4,4-dimethyltetrahydrofuran-3-yl)-4-fluoro-1H-benzo[d]imidazole-6-carboxylic acid] gave a concentration giving a half-maximal response (EC50) of 0.168 nM.

`CO[C@H](C)Cn1c(Cc2cc(F)c(-c3cccc(OCc4ccc(C#N)cc4F)n3)cc2F)nc2c(F)cc(C(=O)O)cc21` [Example 355, (R)-2-(4-(6-((4-cyano-2-fluorobenzyl)oxy)pyridin-2-yl)-2,5-difluorobenzyl)-4-fluoro-1-(2-methoxypropyl)-1H-benzo[d]imidazole-6-carboxylic acid] gave an EC50 of 1.21 nM.

`CC1(C)COC[C@H]1n1c(Cc2cc(F)c(-c3cccc(OCc4cnc(-n5ccnn5)cc4C(F)(F)F)n3)cc2F)nc2ccc(C(=O)O)cc21` [Example 414, (S)-2-(4-(6-((6-(1H-1,2,3-triazol-1-yl)-4-(trifluoromethyl)pyridin-3-yl)methoxy)pyridin-2-yl)-2,5-difluorobenzyl)-1-(4,4-dimethyltetrahydrofuran-3-yl)-1H-benzo[d]imidazole-6-carboxylic acid] came in with a half-maximal effective concentration (EC50) of 0.261 nM. Compared with the last compound, the EC50 is about 4.6-fold lower.

Compound `O=C(O)c1ccc2nc(Cc3cc(F)c(-c4cccc(OCc5ccc(Cl)cc5F)n4)cc3F)n(C3COC4CC3C4)c2c1` (stereo in doubt) [Example 573, (S)-1-(2-oxabicyclo[3.1.1]heptan-4-yl)-2-(4-(6-((4-chloro-2-fluorobenzyl)oxy)pyridin-2-yl)-2,5-difluorobenzyl)-1H-benzo[d]imidazole-6-carboxylic acid] gave a half-maximal effective concentration (EC50) of 0.188 nM.

For the compound `CC1(C)COC[C@H]1n1c(Cc2cc(F)c(-c3cccc(OCc4ccc(C#N)cc4Cl)n3)cc2F)nc2ccc(C(=O)O)cc21` [Example 460, (S)-2-(4-(6-((2-chloro-4-cyanobenzyl)oxy)pyridin-2-yl)-2,5-difluorobenzyl)-1-(4,4-dimethyltetrahydrofuran-3-yl)-1H-benzo[d]imidazole-6-carboxylic acid], the EC50 stood at 0.096 nM.

Turning to `O=C(O)c1ccc2nc(Cc3cc(F)c(-c4cccc(OCc5ccc6nsnc6c5)n4)cc3F)n(C[C@@H]3CCO3)c2c1` [Example 527, (S)-2-(4-(6-(benzo[c][1,2,5]thiadiazol-5-ylmethoxy)pyridin-2-yl)-2,5-difluorobenzyl)-1-(oxetan-2-ylmethyl)-1H-benzo[d]imidazole-6-carboxylic acid], the EC50 is 0.184 nM.

In turn, `O=C(O)c1cc(F)c2nc(Cc3cc(F)c(-c4ncc(F)c(OCc5ccc(C(F)(F)F)cc5F)n4)cc3F)n(C[C@@H]3CCO3)c2c1` [Example 148, (S)-2-(2,5-difluoro-4-(5-fluoro-4-((2-fluoro-4-(trifluoromethyl)benzyl)oxy)pyrimidin-2-yl)benzyl)-4-fluoro-1-(oxetan-2-ylmethyl)-1H-benzo[d]imidazole-6-carboxylic Acid] yielded an EC50 of 0.174 nM.

In the case of `N#Cc1ccc(COc2cccc(-c3cc(F)c(Cc4nc5ccc(C(=O)O)cc5n4CC4(C5CC5)CCCO4)cc3F)n2)c(F)c1` (stereo not drawn) [Example 273, 2-(4-(6-((4-cyano-2-fluorobenzyl)oxy)pyridin-2-yl)-2,5-difluorobenzyl)-1-((2-cyclopropyltetrahydrofuran-2-yl)methyl)-1H-benzo[d]imidazole-6-carboxylic acid], it took 0.942 nM to reach a half-maximal effect (EC50).

`O=C(O)c1cc(F)c2nc(Cc3cc(F)c(-c4cccc(OCc5ccc(Cl)cc5F)n4)cc3F)n(C3COCC34CC4)c2c1` (stereo not drawn) [Example 220, 2-(4-(6-((4-chloro-2-fluorobenzyl)oxy)pyridin-2-yl)-2,5-difluorobenzyl)-4-fluoro-1-(5-oxaspiro[2.4]heptan-7-yl)-1H-benzo[d]imidazole-6-carboxylic acid] returned an EC50 of 0.216 nM.

`COCCn1c(Cc2cc(F)c(-c3cccc(OCc4ccc(C#N)cc4)n3)cc2F)nc2c(F)cc(C(=O)O)cc21` [Example 382, 2-(4-(6-((4-cyanobenzyl)oxy)pyridin-2-yl)-2,5-difluorobenzyl)-4-fluoro-1-(2-methoxyethyl)-1H-benzo[d]imidazole-6-carboxylic acid] showed an EC50 of 0.604 nM.

Regarding `CC1(C)COC[C@H]1n1c(Cc2cc(F)c(-c3cccc(OCc4ccc(Cl)cc4F)n3)cc2F)nc2c(F)cc(C(=O)O)cc21` [Example 201, (S)-2-(4-(6-((4-chloro-2-fluorobenzyl)oxy)pyridin-2-yl)-2,5-difluorobenzyl)-1-(4,4-dimethyltetrahydrofuran-3-yl)-4-fluoro-1H-benzo[d]imidazole-6-carboxylic acid], it took 0.028 nM to reach a half-maximal effect (EC50).

As for `COc1cc(Cl)ncc1COc1cccc(-c2cc(F)c(Cc3nc4ccc(C(=O)O)cc4n3C3COCC3(C)C)cc2F)n1` (stereo not drawn) [Example 294, 2-(4-(6-((6-chloro-4-methoxypyridin-3-yl)methoxy)pyridin-2-yl)-2,5-difluorobenzyl)-1-(4,4-dimethyltetrahydrofuran-3-yl)-1H-benzo[d]imidazole-6-carboxylic acid], the concentration giving a half-maximal response (EC50) was found to be 0.021 nM.

Turning to `COCCn1c(Cc2cc(F)c(-c3cccc(OCc4ccc(-c5cnn(C(F)F)c5)cc4F)n3)cc2F)nc2ccc(C(=O)O)cc21` [Example 100, 2-(4-(6-((4-(1-(difluoromethyl)-1H-pyrazol-4-yl)-2-fluorobenzyl)oxy)pyridin-2-yl)-2,5-difluorobenzyl)-1-(2-methoxyethyl)-1H-benzo[d]imidazole-6-carboxylic Acid], a half-maximal effect (EC50) was put at 0.45 nM.

As to `COCCn1c(Cc2nc(N)c(-c3cccc(OCc4ccc(C#N)cc4F)n3)cc2F)nc2ccc(C(=O)O)cc21` [Example 49], the midpoint of the response, the EC50, lay at 45.6 nM.

`COCCn1c(Cc2cc(F)c(-c3cccc(OCc4ccc(-c5ccc(C)nc5)cc4F)n3)cc2F)nc2ccc(C(=O)O)cc21` [Example 105, 2-(2,5-difluoro-4-(6-((2-fluoro-4-(6-methylpyridin-3-yl)benzyl)oxy)pyridin-2-yl)benzyl)-1-(2-methoxyethyl)-1H-benzo[d]imidazole-6-carboxylic Acid] had an EC50 of 1.55 nM. This EC50 is about 29-fold lower than that of the compound before.

`CC12CC(n3c(Cc4cc(F)c(-c5cccc(OCc6ccc(C#N)cc6F)n5)cc4F)nc4ccc(C(=O)O)cc43)(CO1)C2` (racemic) [Example 270, 2-(4-(6-((4-cyano-2-fluorobenzyl)oxy)pyridin-2-yl)-2,5-difluorobenzyl)-1-((1s,4s)-1-methyl-2-oxabicyclo[2.1.1]hexan-4-yl)-1H-benzo[d]imidazole-6-carboxylic acid] came in with a concentration giving a half-maximal response (EC50) of 6090 nM.

Regarding `C[C@H]1COC[C@H]1n1c(Cc2cc(F)c(-c3ccc(F)c(OCc4ccc(Cl)cc4F)n3)cc2F)nc2ccc(C(=O)O)cc21` [Example 471, 2-(4-(6-((4-chloro-2-fluorobenzyl)oxy)-5-fluoropyridin-2-yl)-2,5-difluorobenzyl)-1-((3S,4R)-4-methyltetrahydrofuran-3-yl)-1H-benzo[d]imidazole-6-carboxylic acid], the EC50 was found to be 0.041 nM. This counts as picomolar.

With `CC1(C)COC[C@H]1n1c(Cc2cc(F)c(-c3cccc(OCc4ccc(F)c(F)c4)n3)cc2F)nc2ccc(C(=O)O)cc21` [Example 457, (S)-2-(4-(6-((3,4-difluorobenzyl)oxy)pyridin-2-yl)-2,5-difluorobenzyl)-1-(4,4-dimethyltetrahydrofuran-3-yl)-1H-benzo[d]imidazole-6-carboxylic acid], the response was half-maximal at 0.157 nM (EC50). Against the preceding compound, the EC50 is about 3.8-fold higher.

As for `CC1(C)COC[C@H]1n1c(Cc2cc(F)c(-c3cccc(OCc4ccccc4F)n3)cc2F)nc2ccc(C(=O)O)cc21` [Example 478, (S)-2-(2,5-difluoro-4-(6-((2-fluorobenzyl)oxy)pyridin-2-yl)benzyl)-1-(4,4-dimethyltetrahydrofuran-3-yl)-1H-benzo[d]imidazole-6-carboxylic acid], the concentration for a half-maximal effect (EC50) came out at 0.25 nM. Against the preceding compound, the EC50 is about 1.6-fold higher.

Regarding `COc1cc(Cl)ncc1COc1nc(-c2cc(F)c(Cc3nc4ccc(C(=O)O)cc4n3[C@@H]3COCC3(C)C)c(F)c2F)ccc1F` [Example 341, (S)-2-(4-(6-((6-chloro-4-methoxypyridin-3-yl)methoxy)-5-fluoropyridin-2-yl)-2,3,6-trifluorobenzyl)-1-(4,4-dimethyltetrahydrofuran-3-yl)-1H-benzo[d]imidazole-6-carboxylic acid], a half-maximal effect (EC50) was put at 0.024 nM.

Take `Cn1nnc2cc(COc3cccc(-c4cc(F)c(Cc5nc6ccc(C(=O)O)cc6n5[C@@H]5COCC5(C)C)cc4F)n3)ccc21` [Example 512, (S)-2-(2,5-difluoro-4-(6-((1-methyl-1H-benzo[d][1,2,3]triazol-5-yl)methoxy)pyridin-2-yl)benzyl)-1-(4,4-dimethyltetrahydrofuran-3-yl)-1H-benzo[d]imidazole-6-carboxylic acid]: a half-maximal effect (EC50) was put at 0.515 nM.

Turning to `N#Cc1ccc(COc2cccc(-c3cc(F)c(Cc4nc5ccc(C(=O)O)cc5n4C[C@@]45CO[C@@H](CCO4)C5)cc3F)n2)c(F)c1` (racemic) [Example 272, 1-(((5S)-2,6-dioxabicyclo[3.2.1]octan-1-yl)methyl)-2-(4-(6-((4-cyano-2-fluorobenzyl)oxy)pyridin-2-yl)-2,5-difluorobenzyl)-1H-benzo[d]imidazole-6-carboxylic acid], the concentration for a half-maximal effect (EC50) came out at 2.11 nM. Compared with the last compound, the EC50 is about 4.1-fold higher.

`CC1(C)COC[C@H]1n1c(Cc2cc(F)c(-c3cccc(OCc4ccc(-n5ccnn5)cc4)n3)cc2F)nc2c(F)cc(C(=O)O)cc21` [Example 186, (S)-2-(4-(6-((4-(1H-1,2,3-triazol-1-yl)benzyl)oxy)pyridin-2-yl)-2,5-difluorobenzyl)-1-(4,4-dimethyltetrahydrofuran-3-yl)-4-fluoro-1H-benzo[d]imidazole-6-carboxylic acid] displayed a half-maximal effective concentration (EC50) of 0.018 nM. This EC50 is about 120-fold lower than that of the compound before.
